# Results reported in patent publication US5006515A, “Pharmaceuticals, phosphorus-containing 2-isoxazolines and isoxazoles contained therein” (Hoechst Aktiengesellschaft, priority 1987, dated 1991).
# Assays:
# active Arthus reaction = assay: Active Arthus reaction in the rat; type: in vivo, Sprague-Dawley rats; conditions: Rattus norvegicus, po, 4 h, oral dose 35 mg/kg, 4 h after ovalbumin challenge; read-out: Active Arthus reaction % change
# Experimental: The experimental animals used were female and male Sprague-Dawley rats with a body weight between 80 and 100 g which received subcutaneous injections into the tail-head of 0.5 ml of an emulsion of pertussis vaccine and ovalbumin in liquid paraffin. After two weeks, the rats were divided into groups each of 8 animals. 24 hours and 1 hour before induction of the Arthus reaction by injection of 0.1 ml of a 0.4% strength ovalbumin solution into the right hind paw, the particular test substance or the pure vehicle (positive control) was administered orally, sodium chloride solution was injected into the left paw. One group of unsensitized animals (negative control group) was likewise treated with ovalbumin in order to be able to rule out nonspecific reactions to the protein. The parameter used for measuring the action of the product was the percentage change in the increase in paw volume compared with that in the control group which was sensitized but untreated (positive control) 4 hours after ovalbumin challenge, when the swelling had reached its maximum.
# Acute toxicity = assay: Acute toxicity; set-up: species or system mice; conditions: mouse, in vivo, iv, single dose, mortality within 7 days
# Experimental: The LD50 values were determined by the standard method via the mortality occurring within 7 days in NMRI (Naval Medical Research Institute) mice (6 animals per dose) after a single intraperitoneal (i.p.) or intravenous (i.v.) dose.
# Listeria monocytogenes = assay: DTH reaction in mice infected with Listeria monocytogenes; type: in vivo, female NMRI mice
# Experimental: In this experiment, the specific, cell-mediated immunity against the bacterium Listeria monocytogenes was investigated by means of the DTH reaction Female NMRI mice were infected with 2×10^2 live bacteria and then divided into groups each containing 10 animals. The treatment of the animals by intraperitoneal administration of the product in doses of 0.1, 1 or 10 mg/kg was started the same day. This treatment was repeated after 2, 4 and 6 days. Infected animals in a fourth experimental group, which received merely the pure vehicle i.p. in place of the product, acted as positive control. On day 13 of the experiment the DTH reaction was induced by injection of a soluble antigen obtained from Listeria monocytogenes into the footpad. 10 uninfected animals in a 5th experimental group (negative control) were likewise treated with the antigen in order to rule out non-specific reactions to the antigen challenge 24 hours after the administration of antigen, the percentage increase in the paw volume was determined as a measure of the induced DTH reaction.
# The same experimental system was also used to examine the effect of the test substance on i.p. administration of 10 mg/kg on the DTH reaction of female NMRI mice after infection with differing amounts of the bacterium Listeria monocytogenes. The animals received either 2×10^2 or 5×10^2 organisms. According to this, although the DTH reaction is increased by the test substance at both organism concentrations, this stimulation is distinctly more pronounced in the animal group infected with the lower number of organisms.
# Staphylococcus aureus = Staphylococcus aureus infection of immunosuppressed mice; type: in vivo, female B6D2F1 mice; conditions: up to day 45
# Text: It is known that distinct immunosuppression can be induced in experimental animals by multiple administration of a cytostatic and is expressed by an increased susceptibility to infection with a drastic rise in mortality. […] Another group of infected animals which had not, however, been immunosuppressed by pretreatment with ADM was included as negative control. The immunosuppressed animals in the three active product groups received, on 4 consecutive days starting one day before the infection, the test substance, with intraperitoneal doses each of 0.1, 1 or 10 mg/kg being administered. Each experimental group comprised 20 animals.
# [1] = system: antibodies against E. coli organisms; assay: Antibody response of the mouse to dead E. coli organisms (ELISA); type: in vivo, female NMRI mice; conditions: for Antibody response to dead E. coli organisms, IgM: 10-day value; for Antibody response to dead E. coli organisms, IgG: 20-day value
# Experimental: (§1) Groups each containing 5 female NMRI mice with a body weight of 18 to 20 g were formed, and each of the animals received either intravenous administration of 10^8 heat-killed E coli bacteria or 300 Lf (limes of flocculation) of tetanus toxoid. Oral administration of the test substance in physiological saline (PBS) in doses of 5, 10, 20, 40 or 80 mg/kg, or of the pure vehicle (control groups), was carried out at the same time as administration of the antigen. After 10 and 20 days, blood was taken from the retroorbital venous plexus of the mice and, in the sera obtained therefrom, the IgG and IgM antibodies against E. coli organisms and tetanus toxoid were determined with the aid of the ELISA technique known to those skilled in the art, using homologous lipopolysaccharide from E. coli and tetanus toxoid, respectively, as antigen. The magnitude of the extinctions measured in the photometer is a measure of the amount of antibodies formed.
# [2] = system: antibodies against tetanus toxoid; assay: Antibody response of the mouse to tetanus toxoid (ELISA); type: in vivo, female NMRI mice; conditions: 20-day value
# Experimental: as §1
# B16 melanoma = assay: Stimulation of defenses against B16 melanoma in the mouse; type: in vivo, female C57B1/6 mice; conditions: intervals of 2 days, day 4 to day 100
# Text: A primary tumor was generated with 2×10^5 live B16 melanoma cells in female C57B1/6 mice with a body weight of 18 to 20 g and, after having grown to a diameter of 0.65 cm, was removed surgically. The animals subsequently died of metastases in the lung. The investigation now was of whether the mean survival time after removal of the primary tumor, that is to say the time at which 50% of the animals are still alive, can prolonged by intraperitoneal treatment with the compounds of the formula I. For this purpose, after amputation of the primary tumor, the mice were divided into groups each containing 10 animals and were treated with i.p. doses each of 1.25 or 2.5 mg/kg test substance at intervals of 2 days from day 4 to day 100. The animals in the control group received merely the pure vehicle PBS (physiological saline) in the same therapeutic regimen.
# peritoneal macrophages = assay: Activation of peritoneal macrophages: chemiluminescence (oxidative metabolism); conditions: for Chemiluminescence: single dose
compound,measurement,setting,value
"O=P(O)(O)C1CC(c2ccccc2)=NO1 (racemic) [Example 34, 3-Phenyl-2-isoxazolin-5-ylphosphonic acid]",change in vivo at 35 mg/kg,active Arthus reaction,-16%
same,LD50 at 168 h,Acute toxicity,200 to 300 mg/kg
same,DTH reaction % increase in the paw volume,"Listeria monocytogenes; 2×10^2 bacteria, 0.1 mg/kg 4 × i.p.",13.3 ± 9.7%
same,DTH reaction % increase in the paw volume,"Listeria monocytogenes; 2×10^2 bacteria, 1.0 mg/kg 4 × i.p.",15.0 ± 7.0%
same,DTH reaction % increase in the paw volume,"Listeria monocytogenes; 2×10^2 bacteria, 10.0 mg/kg 4 × i.p., p <0.05 (Student's t test)",19.2 ± 9.4%
same,DTH reaction % increase in the paw volume,"Listeria monocytogenes; Table 13 experiment: 2 × 10^2 organisms, 4 × 10 mg/kg i.p.",30.9 ± 15.3%
same,DTH reaction % increase in the paw volume,"Listeria monocytogenes; Table 13 experiment: 5 × 10^2 organisms, 4 × 10 mg/kg i.p.",17.9 ± 12.1%
same,Mortality,Staphylococcus aureus; 0.1 mg/kg 4 × i.p.,5/20
same,Mortality,Staphylococcus aureus; 1.0 mg/kg 4 × i.p.,8/20
same,Mortality,Staphylococcus aureus; 10.0 mg/kg 4 × i.p.,8/20
same,"Antibody response to dead E. coli organisms, IgM",[1]; 5 mg/kg 1 × p.o.,1217 ± 264 mE492nm
same,"Antibody response to dead E. coli organisms, IgG",[1]; 5 mg/kg 1 × p.o.,1377 ± 324 mE492nm
same,"Antibody response to dead E. coli organisms, IgM",[1]; 10 mg/kg 1 × p.o.,1411 ± 179 mE492nm
same,"Antibody response to dead E. coli organisms, IgG",[1]; 10 mg/kg 1 × p.o.,1663 ± 191 mE492nm
same,"Antibody response to dead E. coli organisms, IgM",[1]; 20 mg/kg 1 × p.o.,1657 ± 231 mE492nm
same,"Antibody response to dead E. coli organisms, IgG",[1]; 20 mg/kg 1 × p.o.,1951 ± 468 mE492nm
same,"Antibody response to dead E. coli organisms, IgM",[1]; 40 mg/kg 1 × p.o.,1523 ± 288 mE492nm
same,"Antibody response to dead E. coli organisms, IgG",[1]; 40 mg/kg 1 × p.o.,2434 ± 312 mE492nm
same,"Antibody response to dead E. coli organisms, IgM",[1]; 80 mg/kg 1 × p.o.,1459 ± 208 mE492nm
same,"Antibody response to dead E. coli organisms, IgG",[1]; 80 mg/kg 1 × p.o.,2217 ± 273 mE492nm
same,"Antibody response to tetanus toxoid, IgG",[2]; 5 mg/kg 1 × p.o.,865 ± 182 mE492nm
same,"Antibody response to tetanus toxoid, IgG",[2]; 10 mg/kg 1 × p.o.,1213 ± 255 mE492nm
same,"Antibody response to tetanus toxoid, IgG",[2]; 20 mg/kg 1 × p.o.,1852 ± 261 mE492nm
same,"Antibody response to tetanus toxoid, IgG",[2]; 40 mg/kg 1 × p.o.,1357 ± 348 mE492nm
same,"Antibody response to tetanus toxoid, IgG",[2]; 80 mg/kg 1 × p.o.,1154 ± 232 mE492nm
same,% survival after 100 days,B16 melanoma; 1.25 mg/kg i.p.,20%
same,Mean survival time,B16 melanoma; 1.25 mg/kg i.p.,41 days
same,% survival after 100 days,B16 melanoma; 2.50 mg/kg i.p.,30%
same,Mean survival time,B16 melanoma; 2.50 mg/kg i.p.,43 days
same,Chemiluminescence,peritoneal macrophages; 5 mg/kg i.p.,842 ± 42 RLU/15 min × 10^3
same,Chemiluminescence,peritoneal macrophages; 5 mg/kg p.o.,728 ± 101 RLU/15 min × 10^3
same,Chemiluminescence,peritoneal macrophages; 10 mg/kg i.p.,2842 ± 223 RLU/15 min × 10^3
same,Chemiluminescence,peritoneal macrophages; 10 mg/kg p.o.,2140 ± 156 RLU/15 min × 10^3
same,Chemiluminescence,peritoneal macrophages; 20 mg/kg i.p.,4935 ± 516 RLU/15 min × 10^3
same,Chemiluminescence,peritoneal macrophages; 20 mg/kg p.o.,3286 ± 283 RLU/15 min × 10^3
same,Chemiluminescence,peritoneal macrophages; 40 mg/kg i.p.,6990 ± 290 RLU/15 min × 10^3
same,Chemiluminescence,peritoneal macrophages; 40 mg/kg p.o.,4405 ± 197 RLU/15 min × 10^3
same,"chemiluminescence, in words",peritoneal macrophages; i.p. and p.o.,pronounced dose-dependent increase in chemiluminescence
